Data as given in patent publication US11471422B2, “Stealth, targeted nanoparticles (STN) for oral drug delivery” (priority 2014, dated 2022).
Where two headings read alike, the source gives them in different places. One block for each compound: values may come before it.

Columns and labels:
Details in all cases: in vivo
[1] = Percentage bioavailability vs time profile of Nutraceutical 1 from coated STN (FIG. 6)
[2] = Percentage cumulative bioavailability vs time profile of two antibiotics from coated STN (FIG. 4)
[3] = Percentage bioavailability vs time profile of anticancer drug from coated STN (FIG. 5)
Description: FIG. 5: Percentage Bioavailability vs time profile of anticancer drug (docetaxel) from coated STN indicating >90% release after 9 hr against conventional oral form with <10% bioavailability

bioavailability at 6 hrs ([1]; oral, from coated STN, at 6 hrs): > 80%
bioavailability ([1]; conventional formulations): < 15%
Compound: COC1=C(OC)C(=O)C(C/C=C(\C)CC/C=C(\C)CC/C=C(\C)CC/C=C(\C)CC/C=C(\C)CC/C=C(\C)CC/C=C(\C)CC/C=C(\C)CC/C=C(\C)CCC=C(C)C)=C(C)C1=O [Coenzyme Q 10]

bioavailability at 7 hr ([2]; po): > 100%
Compound: CO/N=C(\C(=O)N[C@@H]1C(=O)N2C(C(=O)O)=C(CSc3nc(=O)c(=O)[nH]n3C)CS[C@H]12)c1csc(N)n1 [ceftriaxone]

bioavailability at 9 hr ([3]; oral, from coated STN, after 9 hr (printed as release)): > 90%
bioavailability ([3]; conventional oral form): < 10%
Compound: CC(=O)O[C@@]12CO[C@@H]1C[C@H](O)[C@@]1(C)C(=O)[C@H](O)C3=C(C)[C@@H](OC(=O)[C@H](O)[C@@H](NC(=O)OC(C)(C)C)c4ccccc4)C[C@@](O)([C@@H](OC(=O)c4ccccc4)[C@H]21)C3(C)C [docetaxel]

Compound: CC1(C)[C@H](C(=O)O)N2C(=O)C[C@H]2S1(=O)=O [sulbactam]
bioavailability at 7 hr ([2]; from coated STN, STN oral delivery, at 7 hr, read-out: Percentage cumulative bioavailability): > 100%
